# Test results reported in US7294637B2 (Sepracor, Inc., priority 2000, dated 2007).
# Like-named read-outs stand apart in the source and are kept apart here.
# Experiments:
# DAT = DAT (Homo sapiens, UniProt Q01959); experiment: cell-based; parameters: expressed in transfected cells; details: hDAT cell line; read-out: DA Uptake, Functional Assays (antagonism, EC50)
# Sprague-Dawley rats [1] = experiment: Spontaneous locomotor activity in rats, 1-24 hours (Example 223); type: in vivo, rat; details: 10 mg/kg i.p.; for locomotor activity compared to control animals: at all times tested (1, 3, 5, 8, 24 hours)
# Description: The effect of 124 and 126 on spontaneous locomotor activity in rats was determined according to the procedures outlined by Silverman et al. (Motor Activity. In “Animal behavior in the laboratory”, Chapman and Hall eds, London, p. 79-92, 1978) and Boissier et al. (Arch. Int. Pharmacodyn. 1965, 158, 212. ) Test items and test item vehicles were administered to male Sprague-Dawley rats (n=10) as a single i.p. dose. One, three, five, eight and twenty four hours following administration, rats were placed in a plastic box 30×30 cm in a room with low light intensity (maximum 50 lux). Locomotor activity was determined during 20 minute periods using video image analyzers. Images recorded with video cameras were digitalized and displacements of the center of gravity of the digital image spot were tracked and analyzed. When the speed of displacement of the center of gravity of the spot was below 4.26 cm/sec, the movement was considered as inactivity. When this speed was between 4.26 and 6.75 cm/sec, the movement was considered as a small movement. When this speed was above 6.75 cm/sec, the movement was considered as a large movement. The number of occurrences, distance and duration of fast and slow movements, number of occurrences and duration of periods of inactivity and number of rears were measured.
# rats [2] = experiment: Behavioral despair assay in rats, 3 i.p. injections (Example 143); type: in vivo, rat; details: for % variation of the total duration of immobility: 3 i.p. injections 24 h, 5 h and 1 h before test
# Excerpt: The objective of this study was to assess the antidepressant effects of test compounds 124, 125, 126, and 127 in the behavioral despair assay in rats according to the methods described by Porsolt R. D., Anton G., Blavet N., Jalfre M., Behavioural despair in rats: a new model sensitive to antidepressant treatment, Eur. J. Pharmacol., 1978, 47, 379-391. The animals were preconditioned in a pretest session, where the rats were individually forced to swim inside a vertical plexiglass cylinder containing water maintained at 19-20° C. After 15 minutes in the water, they were allowed to dry for 15 minutes in a heated enclosure. Twenty four hours later, they were replaced in the cylinder and the total duration of immobility was measured during a 5 minute test (test session). The test compounds and vehicle were administered as a series of 3 intraperitoneal injections 24 h, 5 h and 1 h before the 5 minute test on the second day.
# (§1) The results are expressed as the percentage of variation of the total duration of immobility calculated from the mean value of the vehicle-treated group (% variation=[(immobility duration of vehicle-immobility duration of test compound)/(immobility duration of vehicle)]×100%).
# rat = experiment: Acute toxicity assessment, maximum tolerated dose i.v., rat; type: in vivo; details: rats, 10 mg/kg i.v.
# Description: (§2) An in vivo evaluation was carried out to determine the maximum tolerated dose of numerous test compounds in two animal species (mouse and rat). The compounds were administered i.v. and the animals were then observed for 72 h. Compounds 114, 115, 113, 110, 124, 125, 129, and 130 were solubilized in 5% dextrose (w/v)/polyethylene glycol 400 (4:1 v/v). Compounds 126, 127, 131, and 132 were solubilized in 10% hydroxypropyl-β-cyclodextrin (w/v).
# serotonin transporter [3] = molecular target: T1, serotonin transporter (Homo sapiens, UniProt P31645); experiment: Functional activity, serotonin uptake inhibition in human HEK-293 cell lines; type: cell-based; parameters: expressed in transfected cells; host or cells: HEK-293; details: human HEK-293 cell lines; read-out: 5-HT Uptake, Functional Assays (antagonism, EC50)
# T1 sequence (P31645 whole entry): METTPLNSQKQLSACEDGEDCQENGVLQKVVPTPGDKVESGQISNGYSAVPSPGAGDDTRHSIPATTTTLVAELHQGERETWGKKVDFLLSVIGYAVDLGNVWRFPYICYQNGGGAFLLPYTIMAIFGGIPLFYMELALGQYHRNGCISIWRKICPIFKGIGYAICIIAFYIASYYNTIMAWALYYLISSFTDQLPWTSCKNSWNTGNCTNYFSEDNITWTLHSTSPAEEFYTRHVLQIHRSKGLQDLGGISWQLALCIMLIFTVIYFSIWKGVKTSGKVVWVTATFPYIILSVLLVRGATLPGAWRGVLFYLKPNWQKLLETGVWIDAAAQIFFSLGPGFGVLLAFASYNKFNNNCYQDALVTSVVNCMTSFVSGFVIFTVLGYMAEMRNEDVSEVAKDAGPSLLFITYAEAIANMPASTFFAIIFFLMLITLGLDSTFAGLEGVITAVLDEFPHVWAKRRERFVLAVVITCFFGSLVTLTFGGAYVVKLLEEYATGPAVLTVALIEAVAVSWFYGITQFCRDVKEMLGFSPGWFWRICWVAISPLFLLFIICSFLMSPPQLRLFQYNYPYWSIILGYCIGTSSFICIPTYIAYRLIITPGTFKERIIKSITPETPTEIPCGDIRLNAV
# dopamine transporter = dopamine transporter (Homo sapiens, UniProt Q01959); experiment: DA uptake: displacement of dopamine ligands in vitro (methods of Gu et al.); details: DA Uptake, Uptake Profile (IC50, nM), displacement of dopamine ligands in vitro
# Sequence of dopamine transporter (Q01959 whole entry): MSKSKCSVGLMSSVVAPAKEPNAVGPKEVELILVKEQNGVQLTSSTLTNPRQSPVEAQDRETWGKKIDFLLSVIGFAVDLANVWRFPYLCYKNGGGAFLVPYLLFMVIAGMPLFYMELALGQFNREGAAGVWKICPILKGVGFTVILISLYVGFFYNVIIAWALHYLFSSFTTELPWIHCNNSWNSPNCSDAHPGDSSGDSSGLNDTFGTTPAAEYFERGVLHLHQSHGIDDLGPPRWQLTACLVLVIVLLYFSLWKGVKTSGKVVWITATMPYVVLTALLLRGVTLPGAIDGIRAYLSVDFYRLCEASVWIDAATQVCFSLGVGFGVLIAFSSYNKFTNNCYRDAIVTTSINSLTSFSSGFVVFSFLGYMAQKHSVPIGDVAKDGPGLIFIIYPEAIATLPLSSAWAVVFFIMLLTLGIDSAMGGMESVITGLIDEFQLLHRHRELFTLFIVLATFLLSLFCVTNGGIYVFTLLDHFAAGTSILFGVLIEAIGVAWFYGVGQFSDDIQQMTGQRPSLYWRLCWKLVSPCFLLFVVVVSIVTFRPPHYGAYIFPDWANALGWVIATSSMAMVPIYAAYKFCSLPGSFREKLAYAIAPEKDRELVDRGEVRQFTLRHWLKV
# [4] = molecular target: T2, norepinephrine transporter (Homo sapiens, UniProt P23975); experiment: NE uptake: displacement of norephinephrine ligands in vitro (methods of Galli et al.); type: binding; details: NE Uptake, Uptake Profile (IC50, nM)
# T2 sequence (P23975 whole entry): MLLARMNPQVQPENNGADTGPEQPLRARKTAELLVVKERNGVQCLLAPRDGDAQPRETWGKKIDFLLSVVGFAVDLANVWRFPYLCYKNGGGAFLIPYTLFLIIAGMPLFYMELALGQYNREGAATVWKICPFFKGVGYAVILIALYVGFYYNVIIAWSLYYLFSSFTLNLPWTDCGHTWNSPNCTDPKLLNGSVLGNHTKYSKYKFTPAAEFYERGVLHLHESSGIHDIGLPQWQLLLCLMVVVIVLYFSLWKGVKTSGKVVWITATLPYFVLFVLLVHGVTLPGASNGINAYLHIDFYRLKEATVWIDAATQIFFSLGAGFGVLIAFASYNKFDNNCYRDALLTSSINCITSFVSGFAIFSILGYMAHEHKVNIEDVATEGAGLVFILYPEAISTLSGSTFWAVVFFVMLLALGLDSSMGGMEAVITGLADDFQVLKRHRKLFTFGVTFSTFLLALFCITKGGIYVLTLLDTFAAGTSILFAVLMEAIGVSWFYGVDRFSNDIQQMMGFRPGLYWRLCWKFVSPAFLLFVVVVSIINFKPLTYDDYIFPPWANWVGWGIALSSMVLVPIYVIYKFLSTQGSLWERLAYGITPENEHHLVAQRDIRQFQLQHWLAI
# mouse = experiment: Acute toxicity assessment, maximum tolerated dose i.v., mouse; type: in vivo; details: mice, 10 mg/kg i.v.
# Description: as §2
# serotonin transporter [5] = molecular target: T1, serotonin transporter; experiment: 5-HT uptake: displacement of serotonin ligands in vitro (methods of Gu et al.); type: binding; details: displacement of serotonin ligands in vitro; read-out: 5-HT Uptake, Uptake Profile (IC50)
# rats [6] = type: in vivo, rat; details: for % variation of the total duration of immobility: 1 h before test
# Description: The animals were preconditioned in a pretest session, where the rats were individually forced to swim inside a vertical plexiglass cylinder containing water maintained at 19-20° C. […] Twenty four hours later, the compounds were administered intraperitoneal to the animals. One hour after administration of the test compound, animals were put back into the cylinder containing water. The total duration of immobility was measured during the last 4 minutes of a 6 minute test.
# as §1
# Sprague-Dawley rats [7] = experiment: Spontaneous locomotor activity in rats (Example 141); type: in vivo, rat; details: for locomotor activity compared to control animals: dosed at 5 and 10 mg/kg i.p.
# Description: The effect of 124 and 126 on spontaneous locomotor activity in rats was determined according to the procedures outlined by Silverman et al. (Motor Activity. In “Animal behavior in the laboratory”, Chapman and Hall eds, London, p. 79-92, 1978) and Boissier et al. (Arch. Int. Pharmacodyn. 1965, 158, 212. )
# Test items and test item vehicles were administered to male Sprague-Dawley rats (n=10) as a single i.p. dose (vehicle A=10% hydroxypropyl-β-cyclodextrin in water; vehicle B=4:1 5% aqueous dextrose:PEG 400). […] Locomotor activity was determined during 20 minute periods using video image analyzers. Images recorded with video cameras were digitalized and displacements of the center of gravity of the digital image spot were tracked and analyzed. When the speed of displacement of the center of gravity of the spot was below 4.26 cm/sec, the movement was considered as inactivity. When this speed was between 4.26 and 6.75 cm/sec, the movement was considered as a small movement. When this speed was above 6.75 cm/sec, the movement was considered as a large movement. The number of occurrences, distance and duration of fast and slow movements, number of occurrences and duration of periods of inactivity and number of rears were measured.
# [8] = molecular target: T2, norepinephrine transporter; experiment: Functional activity, norephinephrine uptake inhibition in MDCK cell lines; type: cell-based
# Sequence of DAT (Q01959 whole entry): as the sequence (Q01959 whole entry) above
structure (smiles),measurement,setting,value
"O[C@H](CN1CCC[C@H](COc2ccc(C(F)(F)F)cc2)C1)C1(c2ccc(Cl)cc2)CCC1 [compound 124, 1S-1-[1-(4-Chloro-phenyl)-cyclobutyl]-2-[(3S)-3-(4-trifluoromethyl-phenoxymethyl)-piperidin-1-yl]-ethanol]",EC50,DAT,< 10 nM
same,Large Movement Occurrences,Sprague-Dawley rats [1]; 1 hour,655 ± 83
same,Small Movement Occurrences,Sprague-Dawley rats [1]; 1 hour,1258 ± 83
same,Large Movement Occurrences,Sprague-Dawley rats [1]; 3 hours,751 ± 122
same,Small Movement Occurrences,Sprague-Dawley rats [1]; 3 hours,1386 ± 96
same,Large Movement Occurrences,Sprague-Dawley rats [1]; 5 hours,616 ± 82
same,Small Movement Occurrences,Sprague-Dawley rats [1]; 5 hours,1277 ± 100
same,Large Movement Occurrences,Sprague-Dawley rats [1]; 8 hours,455 ± 69
same,Small Movement Occurrences,Sprague-Dawley rats [1]; 8 hours,1042 ± 109
same,Large Movement Occurrences,Sprague-Dawley rats [1]; 24 hours,440 ± 55
same,Small Movement Occurrences,Sprague-Dawley rats [1]; 24 hours,934 ± 87
same,locomotor activity compared to control animals,Sprague-Dawley rats [1],significant increase
same,% variation of the total duration of immobility,rats [2]; 1.0 mg/kg,29%
same,% variation of the total duration of immobility,rats [2]; 2.0 mg/kg,71%
same,effectiveness (statistically significant variation >30%),rats [2]; 2.5 mg/kg,effective
same,% variation of the total duration of immobility,rats [2]; 2.5 mg/kg,59%
same,tolerability and mortality after 72 h,rat,well tolerated
same,EC50,serotonin transporter [3],< 1000 nM
same,IC50,dopamine transporter,< 10 nM
same,IC50,[4],< 100 nM
same,tolerability and mortality after 72 h,mouse,well tolerated
same,IC50,serotonin transporter [5],< 1000 nM
same,% variation of the total duration of immobility,rats [6]; 2.5 mg/kg i.p.,6%
same,% variation of the total duration of immobility,rats [6]; 10 mg/kg i.p.,91%
same,Small Movement Occurrences,Sprague-Dawley rats [7]; 5 mg/kg i.p.,484.5 ± 114.1
same,Large Movement Occurrences,"Sprague-Dawley rats [7]; 5 mg/kg i.p., 20 min",228.7 ± 22.5 ^
same,Small Movement Occurrences,"Sprague-Dawley rats [7]; 5 mg/kg i.p., 20 min",589.2 ± 50.4 ^
same,Large Movement Occurrences,"Sprague-Dawley rats [7]; 5 mg/kg i.p., 60 min",74.3 ± 14.8
same,Small Movement Occurrences,"Sprague-Dawley rats [7]; 5 mg/kg i.p., 60 min",232.8 ± 33.6 ^
same,Large Movement Occurrences,"Sprague-Dawley rats [7]; 5 mg/kg i.p., 120 min",168.5 ± 61.5 ^
same,Small Movement Occurrences,"Sprague-Dawley rats [7]; 5 mg/kg i.p., 120 min",443.1 ± 100.6
same,Large Movement Occurrences,"Sprague-Dawley rats [7]; 5 mg/kg i.p., 180 min",212.5 ± 65.1 ^
same,Large Movement Occurrences,"Sprague-Dawley rats [7]; 10 mg/kg i.p., 20 min",391.5 ± 63.3
same,Small Movement Occurrences,"Sprague-Dawley rats [7]; 10 mg/kg i.p., 20 min",919.6 ± 96.4
same,Large Movement Occurrences,"Sprague-Dawley rats [7]; 10 mg/kg i.p., 60 min",427.6 ± 95.8
same,Small Movement Occurrences,"Sprague-Dawley rats [7]; 10 mg/kg i.p., 60 min",965.2 ± 153.9
same,Large Movement Occurrences,"Sprague-Dawley rats [7]; 10 mg/kg i.p., 120 min",603.5 ± 97.4
same,Small Movement Occurrences,"Sprague-Dawley rats [7]; 10 mg/kg i.p., 120 min",1201.4 ± 160.9
same,locomotor activity compared to control animals,Sprague-Dawley rats [7],significant increase
same,EC50,[8],< 1000 nM
"O[C@H](CN1CCC[C@@H](COc2ccc(C(F)(F)F)cc2)C1)C1(c2ccc(Cl)cc2)CCC1 [compound 126, 1R-1-[1-(4-Chloro-phenyl)-cyclobutyl]-2-[(3R)-3-(4-trifluoromethyl-phenoxymethyl)-piperidin-1-yl]-ethanol]",EC50,DAT,< 10 nM
same,Large Movement Occurrences,Sprague-Dawley rats [1]; 1 hour,774 ± 110 ^
same,Small Movement Occurrences,Sprague-Dawley rats [1]; 1 hour,1357 ± 125^
same,Large Movement Occurrences,Sprague-Dawley rats [1]; 3 hours,956 ± 93^
same,Small Movement Occurrences,Sprague-Dawley rats [1]; 3 hours,1610 ± 73 ^
same,Large Movement Occurrences,Sprague-Dawley rats [1]; 5 hours,866 ± 117 ^
same,Small Movement Occurrences,Sprague-Dawley rats [1]; 5 hours,1575 ± 90 ^
same,Large Movement Occurrences,Sprague-Dawley rats [1]; 8 hours,746 ± 95^
same,Small Movement Occurrences,Sprague-Dawley rats [1]; 8 hours,1489 ± 111^
same,Large Movement Occurrences,Sprague-Dawley rats [1]; 24 hours,1012 ± 81 ^
same,Small Movement Occurrences,Sprague-Dawley rats [1]; 24 hours,1544 ± 75 ^
same,locomotor activity compared to control animals,Sprague-Dawley rats [1],significant increase
same,% variation of the total duration of immobility,rats [2]; 0.25 mg/kg,9%
same,% variation of the total duration of immobility,rats [2]; 0.75 mg/kg,47%
same,effectiveness (statistically significant variation >30%),rats [2]; 1.0 mg/kg,effective
same,% variation of the total duration of immobility,rats [2]; 1.0 mg/kg,58%
same,effectiveness (statistically significant variation >30%),rats [2]; 2.5 mg/kg,effective
same,% variation of the total duration of immobility,rats [2]; 2.5 mg/kg,76%
same,tolerability and mortality after 72 h,rat,well tolerated
same,EC50,serotonin transporter [3],< 1000 nM
same,IC50,dopamine transporter,< 10 nM
same,IC50,[4],< 100 nM
same,tolerability and mortality after 72 h,mouse,well tolerated
same,IC50,serotonin transporter [5],< 1000 nM
same,effectiveness (statistically significant variation >30%),rats [6]; 2.5 mg/kg,effective
same,% variation of the total duration of immobility,rats [6]; 2.5 mg/kg i.p.,45%
same,% variation of the total duration of immobility,rats [6]; 10 mg/kg i.p.,99%
same,Small Movement Occurrences,Sprague-Dawley rats [7]; 5 mg/kg i.p.,651.4 ± 141.2
same,Large Movement Occurrences,"Sprague-Dawley rats [7]; 5 mg/kg i.p., 20 min",287.0 ± 34.4 ^
same,Small Movement Occurrences,"Sprague-Dawley rats [7]; 5 mg/kg i.p., 20 min",711.6 ± 65.7 ^
same,Large Movement Occurrences,"Sprague-Dawley rats [7]; 5 mg/kg i.p., 60 min",204.4 ± 36.3 ^
same,Small Movement Occurrences,"Sprague-Dawley rats [7]; 5 mg/kg i.p., 60 min",563.5 ± 85.0 ^
same,Large Movement Occurrences,"Sprague-Dawley rats [7]; 5 mg/kg i.p., 120 min",293.8 ± 68.9 ^
same,Small Movement Occurrences,"Sprague-Dawley rats [7]; 5 mg/kg i.p., 120 min",717.4 ± 138.6
same,Large Movement Occurrences,"Sprague-Dawley rats [7]; 5 mg/kg i.p., 180 min",270.5 ± 73.8 ^
same,Large Movement Occurrences,"Sprague-Dawley rats [7]; 10 mg/kg i.p., 20 min",364.7 ± 52.7 ^
same,Small Movement Occurrences,"Sprague-Dawley rats [7]; 10 mg/kg i.p., 20 min",904.3 ± 110.8
same,Large Movement Occurrences,"Sprague-Dawley rats [7]; 10 mg/kg i.p., 60 min",644.5 ± 127.3
same,Small Movement Occurrences,"Sprague-Dawley rats [7]; 10 mg/kg i.p., 60 min",1218.7 ± 178.9 ^
same,Large Movement Occurrences,"Sprague-Dawley rats [7]; 10 mg/kg i.p., 120 min",752.7 ± 129.4
same,Small Movement Occurrences,"Sprague-Dawley rats [7]; 10 mg/kg i.p., 120 min",1358.1 ± 137.1 ^
same,locomotor activity compared to control animals,Sprague-Dawley rats [7],significant increase
same,EC50,[8],< 1000 nM
